Here are results for 79 compounds from publication PMC12040169 (PLOS Biology, 2025).

The data set can be described thus: in vitro. Particulars: human, hela cells, % viability.

`CN1CCc2c1nc1ccccc1c2NC(=O)CN1CCCCCC1` [CBK278298G]: the viability at 28.5 h, 10 µM was 90.6%.

Take `O=S(=O)(c1c(F)cccc1F)N1CCN(Cc2ccc3c(c2)OCO3)CC1` [CBK074600]: the viability at 28.5 h, 10 µM is 91.5%.

Take `CC(=O)Nc1ccc(N(CC(O)Cn2c3ccccc3c3ccccc32)S(C)(=O)=O)cc1` (stereo not shown) [CBK264352]: the viability at 28.5 h, 10 µM was 96.7%.

Take `CCC(NC(=O)C(C)Cn1cccn1)c1ccc(F)cc1` (stereo not shown) [CBK283210]: the viability at 28.5 h, 10 µM is 88.1%.

Take `Oc1cccc(Sc2cc(C(F)(F)F)ccn2)c1` [CBK115273]: the viability at 28.5 h, 10 µM came out at 97.7%.

Consider `O=C1CCc2cc(S(=O)(=O)Nc3ccc(OCc4ccccc4)cc3)ccc2N1` [CBK286365], for which the viability at 28.5 h, 10 µM was 90%.

On to `COc1cnc(-c2ccccc2)c(NC(C)=O)n1` [CBK145410], for which the viability at 28.5 h, 10 µM came to 93.4%.

As to `COc1ccc(CCNC(=O)CC2Sc3ccc(C(F)(F)F)cc3NC2=O)cc1OC` (stereo not shown) [CBK265341], the viability at 28.5 h, 10 µM worked out at 91.7%.

Take `OCc1cccc(-c2nccnc2NCc2ccc(OC(F)(F)F)cc2)c1` [CBK037476]: the viability at 28.5 h, 10 µM stood at 108%.

As for `O=C(O)CCC(=O)N1N=C2C(=Cc3ccco3)CCCC2C1c1ccco1` (stereo not shown) [CBK296069], the viability at 28.5 h, 10 µM was determined as 97.9%.

`Cn1c(=O)c(-c2nc3ccccc3[nH]2)c(O)c2ccccc21` [CBK027678]: the viability at 28.5 h, 10 µM was determined as 92.7%.

Take `Nc1ncc(-c2ccccc2)nc1NCc1cccnc1` [CBK063452]: the viability at 28.5 h, 10 µM worked out at 116%.

On to `CC(=O)Nc1ccc(NC(=O)c2ccc(-c3ccc([N+](=O)[O-])cc3)o2)cc1` [CBK266220], for which the viability at 28.5 h, 10 µM is 99.8%.

As for `O=C(C(OCC(F)(F)F)c1ccccc1)N1CCN(c2nccs2)CC1` (stereo not shown) [CBK298299], the viability at 28.5 h, 10 µM was found to be 91.9%.

As for `Cc1nc2ccccc2n1CCNC(=O)c1ccccc1SCc1ccc(C#N)cc1` [CBK297082], the viability at 28.5 h, 10 µM worked out at 106%.

Regarding `COC(=O)c1ccsc1NC(=O)CN1CCNCC1` [CBK057080], the viability at 28.5 h, 10 µM was 88.5%.

Consider `O=C(O)COc1c(-c2ccco2)oc2ccccc2c1=O` [CBK269262], for which the viability at 28.5 h, 10 µM was found to be 96.9%.

`Cc1cc(C)c2c(n1)nn1c(C)c(CCC(=O)O)c(C)nc21` [CBK265892]: the viability at 28.5 h, 10 µM was determined as 98.2%.

`COC(=O)CNC(=O)c1ccc(S(=O)(=O)N2CCCC2)cc1` [CBK264880]: the viability at 28.5 h, 10 µM came out at 88.4%.

`Cc1cc2cn([C@H]3C[C@@H](O)[C@@H](CO)O3)c(=O)nc2[nH]1` [CBK201302]: the viability at 28.5 h, 10 µM turned out to be 100%.

On to `Cc1nc([N+](=O)[O-])c(N2CCN(C)CC2)n1Cc1ccccc1` [CBK261421], for which the viability at 28.5 h, 10 µM was 100%.

For the compound `O=C(COc1ccc(Cl)cc1Br)NNC(=O)c1ccc(O)cc1` [CBK262950], the viability at 28.5 h, 10 µM stood at 95.5%.

For the compound `CCn1nc(C)c(C(C)NC(=O)c2ccn(C(F)F)n2)c1C` (stereo not shown) [CBK281534], the viability at 28.5 h, 10 µM turned out to be 79.8%.

Take `O=C(Cn1cnc2ccccc2c1=O)Oc1cccc(NC2=NS(=O)(=O)c3ccccc32)c1` [CBK264975]: the viability at 28.5 h, 10 µM came out at 83.6%.

Take `COc1ccc(N2C(N)=C(C#N)C(c3cccc(OC(C)C)c3)C3=C2CCS3(=O)=O)cc1` (stereo not shown) [CBK293992]: the viability at 28.5 h, 10 µM was determined as 85.6%.

For the compound `CC(C)S(=O)(=O)CC(=O)Nc1ccc(C(=O)O)cc1` [CBK020001], the viability at 28.5 h, 10 µM stood at 96.6%.

With `Cn1[nH]c(CO)c(Cc2c(Cl)cccc2Cl)c1=O` [CBK092278T], the viability at 28.5 h, 10 µM was found to be 95.4%.

Consider `Cc1oc2c(c1CC(=O)N(C)CCN(C)C)C(=O)CC(C)(C)C2` [CBK282171], for which the viability at 28.5 h, 10 µM was found to be 105%.

`Cc1ccc2[nH]c(C3CCCCN3C(=O)c3cscn3)nc2c1` (stereo not shown) [CBK283999]: the viability at 28.5 h, 10 µM was determined as 96.6%.

For `Cn1c2ccccc2c2ncn(CCCO)c(=O)c21` [CBK287951], the viability at 28.5 h, 10 µM was 56.9%.

Take `c1ccc(CCN2CCN(Cc3ncc[nH]3)CC2)cc1` [CBK138328]: the viability at 28.5 h, 10 µM worked out at 120%.

In the case of `COc1cccc(C(=O)NCCC(=O)N2CCC3(CC2)CNC(=O)O3)c1` [CBK306803], the viability at 28.5 h, 10 µM worked out at 88.2%.

Take `CC(C)(C)c1cc(-c2nc3ccccc3[nH]2)c(O)c(-c2nc3ccccc3[nH]2)c1` [CBK266084]: the viability at 28.5 h, 10 µM came to 90%.

Regarding `c1ccc(OCCSc2nc3ccccc3nc2N2CCCC2)cc1` [CBK103694], the viability at 28.5 h, 10 µM was found to be 102%.

For `Nc1ncc(-c2ccc3c(c2)OCO3)nc1-c1ccc(O)cc1` [CBK122505], the viability at 28.5 h, 10 µM amounted to 94.7%.

With `CCCc1cn(C2CCN(c3cc(-n4cc(C)cn4)ncn3)CC2)nn1` [CBK307127], the viability at 28.5 h, 10 µM is 104%.

Consider `O=C(c1ccccc1)c1nnsc1-c1ccccc1` [CBK008193], for which the viability at 28.5 h, 10 µM was 97%.

`CN(C)S(=O)(=O)N(CC(=O)N1CCN(Cc2ccc3c(c2)OCO3)CC1)c1ccccc1` [CBK267994]: the viability at 28.5 h, 10 µM is 102%.

`Cc1ccc(C(=O)N2CC=C(c3c[nH]c4ncccc34)CC2)cn1` [CBK297889]: the viability at 28.5 h, 10 µM is 103%.

As to `Cc1ccc(NC(=O)Nc2cc(S(N)(=O)=O)ccc2C)cc1` [CBK093428], the viability at 28.5 h, 10 µM was determined as 98.5%.

With `Cc1ncc(CN(C)C(=O)Nc2cccc(C(=O)N3CCOCC3)c2)s1` [CBK305984], the viability at 28.5 h, 10 µM was 92.2%.

As for `COc1ccc(S(=O)(=O)NCCCN2CCOCC2)c(C)c1C` [CBK266519], the viability at 28.5 h, 10 µM came out at 110%.

For the compound `CCOc1cc(/C=C2\SC(=N)NC2=O)ccc1OCc1ccc(Br)cc1` [CBK263813], the viability at 28.5 h, 10 µM is 97.7%.

As for `O=C(NCCc1ccccc1)c1cc(Br)cnc1NCCCn1ccnc1` [CBK076421], the viability at 28.5 h, 10 µM was determined as 103%.

`O=C(NC1CCCCC1)N1CC[C@H](c2nc3ccccc3o2)C1` [CBK289372]: the viability at 28.5 h, 10 µM came to 88.4%.

For `COc1ccc(OC)c(C2=NO[C@@](CC(=O)O)(C(=O)NC3CCCCC3)C2)c1` [CBK286672], the viability at 28.5 h, 10 µM worked out at 92.1%.

Take `CS(=O)(=O)c1ccc(C(=O)Nc2nccs2)cc1` [CBK255213]: the viability at 28.5 h, 10 µM was determined as 98.3%.

With `CCN(c1ccc(NC(=O)Cn2nc(C(=O)O)c3ccccc3c2=O)cc1)C(C)C` [CBK297734], the viability at 28.5 h, 10 µM came to 94.5%.

As to `CC(=O)NC1(c2ccccc2F)CCN(CC(=O)N(C)C)CC1` [CBK283618], the viability at 28.5 h, 10 µM is 103%.

Regarding `CC(CN(C)C(=O)c1cocn1)Oc1ccc(Cl)c(Cl)c1` (stereo not shown) [CBK304285], the viability at 28.5 h, 10 µM was 97.6%.

With `COc1ccc(C(=O)NC(=S)Nc2ccc(O)c(-c3nc4cc(C)c(C)cc4o3)c2)cc1[N+](=O)[O-]` [CBK264039], the viability at 28.5 h, 10 µM worked out at 111%.

For the compound `CCOCCc1nsc(NS(=O)(=O)c2cccc(Cl)c2C)n1` [CBK034245], the viability at 28.5 h, 10 µM was found to be 102%.

Regarding `CCN1C(=O)c2ccccc2C(=O)[C@@]2(C)CN(C)C[C@@H]12` [CBK283478], the viability at 28.5 h, 10 µM is 88.3%.

Turning to `c1ccc(Cn2c(-c3ccccc3)c(-c3ccccc3)c3c2ncn2nc(-c4cccnc4)nc32)cc1` [CBK265359], the viability at 28.5 h, 10 µM is 109%.

On to `Brc1ccc(CN2CCN3CCCC3C2C2CCCCC2)o1` (stereo not shown) [CBK021456], for which the viability at 28.5 h, 10 µM worked out at 82.6%.

In the case of `O=C(O)Cc1ccc(NC(=S)Nc2cccc(Cl)c2Cl)cc1` [CBK267064], the viability at 28.5 h, 10 µM was 107%.

For `COc1cc(C(=O)Nc2nc3c(s2)CC(C)CC3)cc(OC)c1OC` (stereo not shown) [CBK287299], the viability at 28.5 h, 10 µM turned out to be 107%.

With `O=C(Nc1ccc(Cc2ccncc2)cc1)c1sc2c([N+](=O)[O-])cccc2c1Cl` [CBK269635], the viability at 28.5 h, 10 µM was determined as 97.1%.

Consider `FC(F)(F)c1ccc(CN2CCC(Oc3nccnc3OCc3cccnc3)CC2)cc1` [CBK083160T], for which the viability at 28.5 h, 10 µM stood at 91.6%.

Turning to `COc1ccc([C@@]23CC[C@@H](C(=O)Nc4ccc(C(F)(F)F)cn4)C[C@@H]2N(C)CC3)cc1OC` [CBK046310T], the viability at 28.5 h, 10 µM is 87.3%.

On to `CC(=O)c1ccc(C(=O)Nc2nc3c(s2)COc2ccccc2-3)cc1` [CBK287363], for which the viability at 28.5 h, 10 µM worked out at 81.9%.

In the case of `O=[N+]([O-])c1ccc(N2CCN(S(=O)(=O)c3ccccc3)CC2)cc1Sc1cccc2cccnc12` [CBK263821], the viability at 28.5 h, 10 µM was determined as 100%.

Turning to `CC(C)C(=O)NCCn1nc(-c2ccco2)ccc1=O` [CBK283863], the viability at 28.5 h, 10 µM is 97%.

Consider `O=C(c1cc(F)c(F)cc1F)N1CCC2(CCN(Cc3cccc(C(F)(F)F)c3)C2)C1` (stereo not shown) [CBK132130], for which the viability at 28.5 h, 10 µM was 102%.

`O=C(Nc1ccccc1C(=O)c1ccccc1)c1ccccn1` [CBK288150]: the viability at 28.5 h, 10 µM is 89.1%.

`CCOc1ccccc1CCNS(=O)(=O)c1ccc(Cl)c(Cl)c1` [CBK043610]: the viability at 28.5 h, 10 µM was determined as 95.5%.

Take `COc1cccc(C(=O)Nc2nc(-c3ccc(S(=O)(=O)N4CCCC4)cc3)cs2)c1` [CBK096257]: the viability at 28.5 h, 10 µM amounted to 89%.

On to `CC(Oc1ccccc1)C(=O)Nc1ccc(C(=O)O)cc1` (stereo not shown) [CBK287154], for which the viability at 28.5 h, 10 µM is 102%.

As to `O=C(CSc1nnc2[nH]c(=O)ccn12)NCc1ccccc1Cl` [CBK287684], the viability at 28.5 h, 10 µM was 95.1%.

Regarding `O=C(Cc1ccccc1F)N1CCC(c2n[nH]c3ncccc23)CC1` [CBK284908], the viability at 28.5 h, 10 µM was 89.6%.

`Cn1c(=O)n(C)c2cc(S(=O)(=O)NCC3(O)CCCNCC3)ccc21` (stereo not shown) [CBK306777]: the viability at 28.5 h, 10 µM worked out at 84.9%.

As for `c1csc(-c2nnc(C3CCN(Cc4ccsc4)CC3)o2)c1` [CBK285309], the viability at 28.5 h, 10 µM came to 102%.

Consider `COc1ccc(NC(=O)/C(=C\c2ccc3c(c2)OCO3)NC(=O)c2ccco2)cc1` [CBK263607], for which the viability at 28.5 h, 10 µM was 86.3%.

Turning to `CCOC(=O)Cc1csc(NC(=O)CSc2nc3cc4c(cc3cc2C)OCO4)n1` [CBK109112], the viability at 28.5 h, 10 µM stood at 105%.

As to `Cc1cccc(NC(=O)CN2C(=O)S/C(=C\c3cc(C)n(-c4cc(C)ccn4)c3C)C2=O)c1` [CBK264671], the viability at 28.5 h, 10 µM was found to be 93.4%.

Regarding `COc1ccc([C@@H]2CCN(C(=O)Cc3ccc(F)cc3)C[C@H]2O)cc1` [CBK283709], the viability at 28.5 h, 10 µM stood at 88.8%.

As to `CCOC(=O)CNC(=O)c1cc(Br)c(OC)c(OC)c1` [CBK058454], the viability at 28.5 h, 10 µM was 116%.

For `COc1cccc2cc(C(=O)NCc3ccc4c(c3)OCO4)oc12` [CBK149797], the viability at 28.5 h, 10 µM was found to be 90.9%.

Consider `COc1ccc(CCNS(=O)(=O)N(C)C)cc1` [CBK264348], for which the viability at 28.5 h, 10 µM stood at 93%.

Usually viability stands for a read-out of living cells in per cent, often relative to untreated cells.
